The source of these data is patent US20190142835A1, “INHIBITION OF AUTOPHAGY USING PHOSPHOLIPASE A2 INHIBITORS” (OREGON HEALTH & SCIENCE UNIVERSITY, priority 2017, published 2019).

SMILES strings stand for the structures. Where only a bound is given, the exact number is not on record here.

The subject of experiment [1] is SN12C xenografts. Briefly: SN12C xenograft study. In kind it is in vivo. As to the method: 6-week old mice were utilized for human renal cell carcinoma xenografts. For both ACHN and SN12C cell lines 2×10^6 cells were diluted in 50 μl of PBS and 50 μl of Matrigel (BD Biosciences) and were injected subcutaneously into the right and left flank of each mouse. Tumors were monitored until they reached an average size of 50-80 mm3 (approximately 2 weeks), at which point treatments were begun. […] MK2206 (60 mg/kg/day) were administered by oral gavage 2-3 day/week. […] Tumors and mouse weights were measured twice weekly. At least 6-8 mice per treatment group were included. All mice were euthanized using CO2 inhalation followed by cervical dislocation per institutional guidelines at Oregon Health and Science University. Experiments were approved by the Institutional Animal Care and Use Committee at OHSU.
Immunostaining was performed following deparaffinization and rehydration of slides. Antigen retrieval was performed in a pressure cooker using citrate buffer (pH 6.0) for 4 min. Nonspecific binding was blocked using Vector mouse IgG blocking serum 30 min at room temperature. Samples were incubated at room temperature with rabbit monoclonal antibodies pS6 (CST #5364) cleaved caspase 3 (CST#9661), and Ki67 (Dako#M7240).
Slides were developed with Vector Immpress rabbit IgG (#MP7401) and Vector Immpress mouse IgG (#MP7400) for 30 min at room temperature. Chromogenic detection was performed using Vector Immpact DAB (#SK4105) for 3 min. Slides were counterstained with hematoxylin. A 3DHistech MIDI Scanner (Perkin Elmer) was used to capture whole slide digital images with a 20× objective. […]
Mouse tumor size was analyzed by 2-way ANOVA with time and drug as factors, using GraphPad Prism. Mouse weight during treatment was analyzed by repeated measures 2-way ANOVA, with time and drug as factors. […] Immunohistochemistry: P-values were calculated using one-way ANOVA, with Bonferroni's multiple comparison test. * denotes P<0.05, ** denotes P<0.01, and *** denotes P<0.001 throughout this disclosure. […]

Experiment [2] concerns MPN patients. The conditions noted are these: human, in vivo; cited from earlier work.
In experiment [3] the test system is human RCC and MPN cell lines. As to the kind of experiment: Suppression of JAK and STAT3 phosphorylation. In kind it is cell-based. The following applies: multiple human RCC and MPN cell lines. As to the method: (§1) Cells were plated in 6 well dishes and treated the following day with the indicated agents. Treatments were for 24 hours, after which cells were washed with ice cold PBS and lysed with RIPA buffer (Sigma). Phosphatase inhibitor cocktail set II and protease inhibitor cocktail set III (EMD Millipore) were added at the time of lysis. Lysates were centrifuged at 15,000 g×10 min at 4 degrees C. Protein concentrations were calculated based on a BCA assay (Thermo Scientific) generated standard curve. Proteins were resolved using the NuPAGE Novex Mini Gel system on 4% to 12% Bis-Tris Gels (Invitrogen). For western blotting, equal amounts of cell lysates (15-20 μg of protein) were resolved with SDSPAGE, and transferred to membranes. The membrane was probed with primary antibodies, washed, and then incubated with corresponding fluorescent secondary antibodies and washed. The fluorescent signal was captured using LI-COR (Lincoln, Nebr.) Odyssey Imaging System, and fluorescent intensity was quantified using the Odyssey software where indicated. The following antibodies were used for Western blots: p-S6 (S240/244), S6, LC3B, p-Akt(S473), p-Akt(T308), Akt, cleaved caspase3 (Cell Signaling Technologies). p-Stat3 (Y705), Stat3 and β-actin (AC15) (Abcam). Ki67 (Dako) and cleaved caspase3 (Cell Signaling Technologies) were used for immunohistochemistry. […] BX795 and GDC0941 were purchased from Sigma.

Experiment [4] deals with glycolysis. As to the kind of experiment: Glucose uptake and lactate excretion as readouts for glycolysis. In kind it is cell-based, human. The following applies: in vitro. An excerpt: The PI3K-AKT-mTOR pathway regulates multiple steps in glucose uptake and metabolism.
The test system of experiment [5] is ACHN cells. Briefly: Autophagy flux validation (immunofluorescence, immunoblot, mCherry-EGFP-LC3 reporter, MDC, TEM). In kind it is cell-based, human.
Source text: Next, we stably expressed a mChery-EGFP-LC3 reported in ACHN cells. This reporter for autophagic flux takes advantage of the fact that EGFP fluorescence is quenched in the acidic environment of the autolysosome relative to mCherry. […] This method to measure flux has been extensively validated and accurately quantitates autophagic flux induction by multiple stimuli and chemical and genetic inhibition of autophagy. […] LC3-I is normally converted into LC3-II (LC3-I covalently bound to phosphatidylethanolamine) during autophagosome formation but is converted back to LC3-I by protease cleavage during autophagosome maturation.
as §1
Slides were plated on coverslips and allowed to adhere for 24 hours. After adherence, cells were treated with drug for 24 hours. After treatment, drug was removed and cells were washed once in PBS. Cells were labeled with a […] concentration of autofluorescent marker monodansylcadaverine (MDC) in PBS for 10 min at 37 C. Cells were fixed in 4% formaldehyde for 15 min at room temperature. Cells were washed in PBS 2×5 min, and mounted on slides using Dako mounting media with dapi. Coverslips were sealed with clear nail polish and imaged with 3DHistech MIDI Scanner as described above.
In general terms: Immunoblotting shows a protein as a band on a membrane.

Experiment [6] relates to ACHN cells. Briefly: Redox homeostasis (p-AMPK, NADPH, GSSG/GSH, ROS). In kind it is cell-based, human. The conditions noted are these: 2 μM CYT387, 10 μM MK2206, 24 hr. As to the method:
ROS levels were measured with Cellrox Deep Red (Molecular Probes). Cell were plated in a 96 well clear bottom with black sides cell culture plate. […] The complete media+drug was removed after 24 hours and replaced with 5 μM of Cellrox Deep Red in media. Cells were incubated for 30 min at 370 C then washed with PBS. Fluorescence signal was detected using a Bioteck Cytation 5 plate reader. Data was analyzed using Prism software.

Experiment [7] deals with ACHN cells. Briefly: Transcriptomic analysis with gene set enrichment (GSEA). In kind it is cell-based, human.
Experiment [8] deals with human RCC and MPN cell lines. Briefly: Growth effect of treatment in RCC and MPN cell lines. The following applies: multiple human RCC and MPN cell lines. In kind it is cell-based.
The subject of experiment [9] is ACHN cells. Briefly: Apoptosis (Caspase 3/7-Glo), ACHN. In kind it is cell-based, human. The following applies: ACHN, 72 h. As to the method: (§2) Apoptosis was determined using Caspase 3/7-Glo assay kit (Promega) following the manufacturer's instructions. Briefly, 2000 cells per well were plated in 96 well plates and cultured for 72 h. […] Caspase 3/7 activity was measured using a luminometer. Luminescence values were normalized by cell numbers.

For experiment [10], the system named is SN12C cells. Briefly: Apoptosis (Caspase 3/7-Glo), SN12C. In kind it is cell-based, human. The following applies: 72 h. As to the method:
as §2

The mark [11] stands for this setting: transmission electron microscopy.

For `N#CCNC(=O)c1ccc(-c2ccnc(Nc3ccc(N4CCOCC4)cc3)n2)cc1` [CYT387], the “apoptosis (cleaved-caspase3) in tumors” value in [1] (SN12C xenograft tumors) was “minimal impact on apoptosis”. Besides, in experiment [1] (SN12C, CYT387 50 mg/kg/day or MK2206 60 mg/kg/day oral gavage), the “antitumor effect of single agent” value is “exhibited antitumor effect”. Moreover, in [2], the “clinical effect in MPN patients” value was “improved splenomegaly and reduced anemia”. Besides, the “phosphorylation of JAK and STAT3” value in experiment [3] is “effective in suppressing the phosphorylation of JAK and STAT3”. Besides, the glucose uptake result in [4] (18FDG) is listed as “significantly decreased glucose uptake”. Besides, the lactate production result in experiment [4] (culture media) is reported as “reduced lactate production”. The “p62 protein expression and phosphorylated-S6 levels by immunofluorescence staining” value in [5] (cells on coverslips) was “decreased p62 protein expression and phosphorylated-S6 levels”. Besides, the “phosphorylation of Y705-STAT3” value in experiment [5] (immunoblot) was “decrease in phosphorylation of Y705-STAT3”. Moreover, the LC3-II levels entry in experiment [5] (immunoblot, more pronounced with E64D/pepstatin) is “increased LC3-II levels”. Besides, the MDC autoflorescence entry in experiment [5] (monodansylcadaverine staining) was “increased MDC autoflorescence”. Besides, the “time to reduction in LC3B lipidation after removal of drug” value in experiment [5] (reversal of autophagy) was no more than 24 h. Besides, the “mChery-EGFP-LC3 reporter of autophagic flux” value in [5] (stably expressed reporter) was “decreased expression of green-yellow cells and increased expression of red cells”. Further, in experiment [5] (setting [11]), the “number of double-membraned autophagosomes” value is “increased the number of double-membraned autophagosomes”; the “number of mitochondria and lipid droplets” value was “increased number of mitochondria and lipid droplets”. In experiment [6], the NADPH levels entry was “increases NADPH levels”, the ROS result is “mitigates ROS” and the p-AMPK result was “activates p-AMPK”. For the same compound, the “expression of genes involved in glycolysis such as PFKB3 and HK2” value in [7] is on record as “downregulated genes involved in glycolysis”. In [8], the “effect of treatment on cell growth” value is “primarily cytostatic”. Moreover, the “apoptosis (cleaved-caspase 3/7)” value in experiment [9] is reported as “little or no effect on apoptosis”. The “apoptosis (cleaved-caspase 3/7)” value in [10] is reported as “little or no effect on apoptosis”.
